{
  "source": "patent US20250197451A1",
  "about": "“USE OF BIOACTIVE POLYPEPTIDE SYNTHESIZED ON BASIS OF KDM2B SEQUENCE IN NEURAL DIFFERENTIATION AND REGENERATION AND REPAIR OF MESENCHYMAL STEM CELLS” (CAPITAL MEDICAL UNIVERSITY SCHOOL OF STOMATOLOGY, priority 2021, published 2025)",
  "key": {"[1]": {"tested_on": "stem cells from apical papilla (SCAPs)", "experiment": "neural induction in vitro: neurosphere formation with βIII-TUBULIN / NESTIN immunofluorescence staining", "assay_type": "cell-based, human", "excerpt": "[…]"}, "KDM2B": {"tested_on": "KDM2B", "experiment": "real-time fluorescence reverse transcription quantitative PCR, KDM2B/GAPDH in SCAPs", "assay_type": "cell-based, human", "experimental": "The plasmid was constructed according to standard methods. The complementary shRNA sequence targeting KDM2B gene was cloned into the viral vector pLKO.1 plasmid, sequenced and identified to complete the construction of the KDM2B shRNA plasmid. After PCR primers were designed for the full-length sequence of the KDM2B gene, the full-length sequence of the KDM2B gene was obtained by amplification, and the HA Tag was added. The tagged full-length KDM2B gene was ligated with the pQCXIN retroviral expression vector, sequenced and identified to obtain the plasmid containing the HA tagged full-length KDM2B gene. The virus packaging was carried out, and the resulting virus was collected, and the virus titer was measured. The virus was aliquoted and stored in the refrigerator at −80° C. The virus at a titer of 10-7 was incubated with stem cells from apical papillae in the presence of polybrene for 48 hours for infection, and the antibiotic was used to screen the infected cells. The sequence of the complementary shRNA targeting the KDM2B gene was represented as KDM2Bsh, with a nucleic acid sequence of 5′-[…]-3′ (SEQ ID NO: 287)."}, "EZH2 protein": {"biological_target": "EZH2 protein (Homo sapiens, UniProt Q15910)", "sequence (Q15910 whole entry, species assumed)": "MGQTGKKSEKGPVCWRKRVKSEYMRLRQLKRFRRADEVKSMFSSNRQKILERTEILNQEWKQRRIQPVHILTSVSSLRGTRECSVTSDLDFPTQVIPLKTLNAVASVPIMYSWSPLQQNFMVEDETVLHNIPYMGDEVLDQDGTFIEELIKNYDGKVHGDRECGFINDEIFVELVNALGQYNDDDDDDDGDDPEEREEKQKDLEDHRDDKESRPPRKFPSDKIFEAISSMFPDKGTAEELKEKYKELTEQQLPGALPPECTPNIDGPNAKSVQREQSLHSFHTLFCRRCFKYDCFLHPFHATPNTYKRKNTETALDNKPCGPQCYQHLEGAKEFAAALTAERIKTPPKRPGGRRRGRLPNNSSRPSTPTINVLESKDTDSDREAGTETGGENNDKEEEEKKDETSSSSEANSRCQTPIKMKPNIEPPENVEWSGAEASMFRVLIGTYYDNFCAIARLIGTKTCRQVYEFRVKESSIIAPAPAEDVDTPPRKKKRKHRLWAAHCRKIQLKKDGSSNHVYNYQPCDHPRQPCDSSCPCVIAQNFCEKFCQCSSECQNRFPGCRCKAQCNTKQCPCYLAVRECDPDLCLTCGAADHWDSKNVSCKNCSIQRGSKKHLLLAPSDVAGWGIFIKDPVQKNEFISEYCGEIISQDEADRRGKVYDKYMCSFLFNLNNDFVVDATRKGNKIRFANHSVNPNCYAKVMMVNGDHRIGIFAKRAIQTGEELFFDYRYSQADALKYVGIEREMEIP", "experiment": "KDM2B polypeptide microarray immune-hybridization with biotin-labelled EZH2 protein", "assay_type": "binding", "conditions": "for Intensity (%) (gray intensity of colored points on the KDM2B polypeptide microarray): biotin-labelled EZH2 1 μg/ml, highest optical density set to 100%, some points noise/spike; for binding site of KDM2B to EZH2 (positive / negative): polypeptide microarray", "excerpt": "[…]"}, "[2]": {"tested_on": "rat model of spinal cord injury (completely transected T10 spinal cord)", "experiment": "rat model of spinal cord injury, transplantation of stem cells from apical papilla (BBB score, gross appearance)", "assay_type": "in vivo", "conditions": "SCI + SCAPs pre-treated with 10 μg/ml peptide 24 hours, individual rats", "excerpt": "[…]"}, "[3]": {"tested_on": "rat model of spinal cord injury (complete transection site T10 spinal cord)", "experiment": "rat model of spinal cord injury, local injection of peptide alone (BBB score, gross appearance)", "assay_type": "in vivo", "conditions": "SCI + peptide alone, 10 μg/ml in 30 μl weekly local injection, individual rats", "experimental": "10 μg/ml of peptide 46-47 in a total of 30 μl was weekly injected into 10-week-old rats at the complete transection site T10 spinal cord (5 individual rats per group)."}, "[4]": {"conditions": "virally transfected SCAPs (overexpression or knockdown), Day 9, individual samples"}, "[5]": {"conditions": "SCAPs + 10 μg/ml peptide, Day 9 of induction, individual samples"}, "[6]": {"conditions": "SCAPs + 10 μg/ml peptide, Day 9 of induction, mean of 5 samples"}},
  "note": "“And” between values parts separate entries of the source, which are not always exact repeats. Equal entries are not always repeated. Ends that are not written are not given here.",
  "data": [
    {"substance": "5′-ATTTTGACGGGGTGGATAATCTG-3′ (expressed or natural sequence) [KDM2Bsh, complementary shRNA targeting the KDM2B gene, cloned into viral vector pLKO.1, reference compound]", "values": [
      {"measurement": "Number of NESTIN-positive neurospheres", "setting": "[1]; [4]", "value": "5 and 4 and 2 (2×) and 3"},
      {"measurement": "Number of βIII-TUBULI-positive neurospheres", "setting": "[1]; [4]", "value": "4 (2×) and 2 and 6 and 3"},
      {"measurement": "Number of βIII-TUBULI-positive neurospheres, Means", "setting": "[1]; virally transfected SCAPs (overexpression or knockdown), Day 9, mean of 5 samples, Vector 9, Scramsh 9", "value": 3.8},
      {"measurement": "Number of NESTIN-positive neurospheres, Means", "setting": "[1]; virally transfected SCAPs (overexpression or knockdown), Day 9, mean of 5 samples, Vector 11, Scramsh 8.2", "value": 3.2},
      {"measurement": "Expression of KDM2B/GAPDH in KDM2B-knockdown SCAPs (fold)", "setting": "KDM2B; individual samples", "value": "0.34 fold and 0.31 fold and 0.28 fold"},
      {"measurement": "Expression of KDM2B/GAPDH in KDM2B-knockdown SCAPs (fold), Means", "setting": "KDM2B; mean of 3 samples, Scramsh 1.0003", "value": 0.3067, "unit": "fold"}
    ]},
    {"substance": "A V G T T T R D S L T E I N L (AVGTTTRDSLTEINL; synthesized KDM2B peptide) [compound 253]", "values": [
      {"measurement": "Intensity (%) (gray intensity of colored points on the KDM2B polypeptide microarray)", "setting": "EZH2 protein", "value": 70.41, "unit": "%"}
    ]},
    {"substance": "C I M R Q C I A P V L P H T A (CIMRQCIAPVLPHTA; synthesized KDM2B peptide) [compound 130]", "values": [
      {"measurement": "Intensity (%) (gray intensity of colored points on the KDM2B polypeptide microarray)", "setting": "EZH2 protein", "value": 30.8, "unit": "%"}
    ]},
    {"substance": "ConPP: control polypeptide synthesized from the negative binding sites (peptide 83-84) of KDM2B, with cell-penetrating peptide and FITC label (EEEACDQQPQEEEEKDEEGE; also: cell-penetrating peptide and FITC label, sites not given here)", "values": [
      {"measurement": "Number of NESTIN-positive neurosphers", "setting": "[1]; [5]", "value": "3 (2×) and 4 (2×) and 6"},
      {"measurement": "Number of βIII-TUBULIN-positive neurosphers", "setting": "[1]; [5]", "value": "8 (2×) and 6 (2×) and 7"},
      {"measurement": "Number of NESTIN-positive neurosphers, Means", "setting": "[1]; [6]", "value": 4},
      {"measurement": "Number of βIII-TUBULIN-positive neurosphers, Means", "setting": "[1]; [6]", "value": 7},
      {"measurement": "BBB score of hind limb motor function", "setting": "[2]; 0 w", "value": "5 and 4 (4×)"},
      {"measurement": "BBB score of hind limb motor function", "setting": "[2]; 1 w", "value": "5 (3×) and 6 (2×)"},
      {"measurement": "BBB score of hind limb motor function", "setting": "[2]; 2 w", "value": "6 (2×) and 7 (3×)"},
      {"measurement": "BBB score of hind limb motor function", "setting": "[2]; 3 w", "value": "8 (3×) and 9 (2×)"},
      {"measurement": "BBB score of hind limb motor function", "setting": "[2]; 4 w", "value": "10 (2×) and 11 and 12 and 13"},
      {"measurement": "BBB score of hind limb motor function", "setting": "[3]; 1 w", "value": "6 (3×) and 5 (2×)"},
      {"measurement": "BBB score of hind limb motor function", "setting": "[3]; 2 w", "value": "7 (2×) and 6 (2×) and 8"},
      {"measurement": "BBB score of hind limb motor function", "setting": "[3]; 3 w", "value": "9 (3×) and 10 and 8"},
      {"measurement": "BBB score of hind limb motor function", "setting": "[3]; 4 w", "value": "12 (2×) and 11 (3×)"},
      {"measurement": "BBB score of hind limb motor function", "setting": "[3]", "value": "4 (3×) and 5 (2×)"}
    ]},
    {"substance": "D Q Q P Q E E E E K D E E G E (DQQPQEEEEKDEEGE; synthesized KDM2B peptide) [peptide 84]", "values": [
      {"measurement": "binding site of KDM2B to EZH2 (positive / negative)", "setting": "EZH2 protein", "value": "negative"}
    ]},
    {"substance": "E E E A C D Q Q P Q E E E E K (EEEACDQQPQEEEEK; synthesized KDM2B peptide) [peptide 83]", "values": [
      {"measurement": "binding site of KDM2B to EZH2 (positive / negative)", "setting": "EZH2 protein", "value": "negative"}
    ]},
    {"substance": "G K Q S D I F L G D R V E R C (GKQSDIFLGDRVERC; synthesized KDM2B peptide) [compound 57]", "values": [
      {"measurement": "Intensity (%) (gray intensity of colored points on the KDM2B polypeptide microarray)", "setting": "EZH2 protein", "value": 39.95, "unit": "%"}
    ]},
    {"substance": "I Y E I E D R T R V Q P K F R (IYEIEDRTRVQPKFR; synthesized KDM2B peptide) [compound 69]", "values": [
      {"measurement": "Intensity (%) (gray intensity of colored points on the KDM2B polypeptide microarray)", "setting": "EZH2 protein", "value": 0.15, "unit": "%"}
    ]},
    {"substance": "L A V D Y P K T P T G S P A T (LAVDYPKTPTGSPAT; synthesized KDM2B peptide) [compound 98]", "values": [
      {"measurement": "Intensity (%) (gray intensity of colored points on the KDM2B polypeptide microarray)", "setting": "EZH2 protein", "value": 0.77, "unit": "%"}
    ]},
    {"substance": "Q P K F R Y P F Y Y E M C W Y (QPKFRYPFYYEMCWY; synthesized KDM2B peptide) [compound 71]", "values": [
      {"measurement": "Intensity (%) (gray intensity of colored points on the KDM2B polypeptide microarray)", "setting": "EZH2 protein", "value": 0.57, "unit": "%"}
    ]},
    {"substance": "T E I N L S D C N K V T D Q C (TEINLSDCNKVTDQC; synthesized KDM2B peptide) [compound 255]", "values": [
      {"measurement": "Intensity (%) (gray intensity of colored points on the KDM2B polypeptide microarray)", "setting": "EZH2 protein", "value": 100, "unit": "%"}
    ]},
    {"substance": "T R D S L T E I N L S D C N K (TRDSLTEINLSDCNK; synthesized KDM2B peptide) [compound 254]", "values": [
      {"measurement": "Intensity (%) (gray intensity of colored points on the KDM2B polypeptide microarray)", "setting": "EZH2 protein", "value": 100, "unit": "%"}
    ]},
    {"substance": "V L E R Y V Y C V T Q R S H L (VLERYVYCVTQRSHL; synthesized KDM2B peptide) [compound 74]", "values": [
      {"measurement": "Intensity (%) (gray intensity of colored points on the KDM2B polypeptide microarray)", "setting": "EZH2 protein", "value": 0.25, "unit": "%"}
    ]}
  ]
}
